Source: patent US9549949B2, “Antiviral agent” (NBC MESHTEC, INC., priority 2008, dated 2017)
Values joined by “and” are separate entries in the source; they are usually repeats but may differ in a detail not shown here. Equal entries are not always repeated. Where two headings read alike, the source gives them in different places.

Columns and labels:
Format in all cases: cell-based
[1] = test system: influenza virus (influenza A/kitakyusyu/159/93 (H3N2))
[2] = test system: influenza virus (influenza A/kitakyusyu/159/93 (H3N2)); assay: Virus inactivation, plaque assay on MDCK cells; settings: enveloped influenza virus, time period as short as 1 minute
[3] = test system: feline calicivirus (F9 strain); assay: Virus inactivation, plaque assay on CrFK cells; settings: non-enveloped feline calicivirus, time period as short as 1 minute
[4] = conc. of substance 0.5 mass %, 10 minutes at room temperature, control (PBS) 128
[5] = conc. of substance 5 mass %, 10 minutes at room temperature, control (PBS) 128

Row | Compound | HA titer [1, 4] | HA titer [1, 5] | virus inactivation activity (in words) [2] | virus inactivation activity (in words) [3] | HA titer [1]
1 | [Cu+].[I-] [Example 1, Copper (I) iodide] | 32 | 8 | sufficiently high virus inactivation activity | sufficiently high virus inactivation activity | –
2 | [I][Sb]([I])[I] [Example 3, Antimony (III) iodide] | 32 | 16 | – | – | –
3 | [I][Ir]([I])([I])[I] [Example 4, Iridium (IV) iodide] | 64 | 32 | – | – | –
4 | [I][Ge]([I])([I])[I] [Example 5, Germanium (IV) iodide] | <2 | <2 | – | – | –
5 | [I][Ge][I] [Example 6, Germanium (II) iodide] | 2 | <2 | – | – | –
6 | [I][Sn][I] [Example 7, Tin (II) iodide] | 2 | <2 | – | – | –
7 | [I][Sn]([I])([I])[I] [Example 8, Tin (IV) iodide] | 2 | <2 | – | – | –
8 | [I-].[Tl+] [Example 9, Thallium (I) iodide] | 64 | 32 | – | – | –
9 | [I-].[I-].[I-].[I-].[Pt+4] [Example 11, Platinum (IV) iodide] | 64 | 32 | – | – | –
10 | [I][Pd][I] [Example 12, Palladium (II) iodide] | 64 | 2 | – | – | –
11 | [I][Bi]([I])[I] [Example 13, Bismuth (III) iodide] | 64 | 8 | – | – | –
12 | [I][Au] [Example 14, Gold (I) iodide] | 64 | 4 | – | – | –
13 | [Fe+2].[I-].[I-] [Example 16, Iron (II) iodide] | <2 | <2 | – | – | –
14 | [Co+2].[I-].[I-] [Example 17, Cobalt (II) iodide] | 8 | <2 | – | – | –
15 | [I][Ni][I] [Example 18, Nickel (II) iodide] | – | – | – | – | <2 and 4
16 | [I-].[I-].[Zn+2] [Example 19, Zinc (II) iodide] | 4 | <2 | – | – | –
17 | [I][In]([I])[I] [Example 21, Indium (III) iodide] | <2 | <2 | – | – | –
18 | [Cl][Cu] [Example 22, Copper (I) chloride] | <2 | <2 | sufficiently high virus inactivation activity | sufficiently high virus inactivation activity | –
19 | [Cu][Br] [Example 23, Copper (I) bromide] | 32 | <2 | – | – | –
20 | CC(=O)[O-].[Cu+] [Example 24, Copper (I) acetate] | – | – | – | – | <2
21 | N#C[S-].[Cu+] [Example 25, Copper (I) thiocyanate] | 64 | 16 | – | – | –
22 | [Cu].[O]=[Cu] [Example 27, Copper (I) oxide] | 64 | 8 | – | – | –
23 | Silver (I) iodide [Example 20] | 64 | 32 | – | – | –
